Assay results as given in publication PMC4022148 (Molecular and biochemical parasitology, 2014).

Target: T1, E. histolytica LMW-PTP (Entamoeba histolytica, UniProt C4LSE7)
T1 sequence (C4LSE7 1-157): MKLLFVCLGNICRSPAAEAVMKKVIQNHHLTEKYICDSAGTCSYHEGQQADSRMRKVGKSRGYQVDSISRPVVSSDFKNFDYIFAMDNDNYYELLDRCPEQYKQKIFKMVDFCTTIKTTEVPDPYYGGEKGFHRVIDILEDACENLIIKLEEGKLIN
Test: colorimetric phosphatase assay, A405
Assay type: biochemical
Settings: kit assay buffer, 10-200 ng enzyme, 100 ul

`O=[N+]([O-])c1ccc(OP(=O)(O)O)cc1` [pNPP] was tested. Which “colorimetric phosphatase assay, A405 (SensoLyte pNPP kit)” value did it give?
Its value is “The wild-type recombinant LMW-PTP possessed phosphatase activity”.
